Values after ≈ are worked out from the molar mass of the structure shown. Values belong to the compound of their own block, whether it stands above or below them.
How the values were obtained:
Assay in all cases: ≥ marks a high value that may be exact or a test limit, other limits are often not marked, values filed in µg/mL are converted to µM
Candida parapsilosis = test system: Candida parapsilosis
[1] = test system: Zymomonas mobilis ATCC 10988
Bacillus subtilis DELTA = test system: Bacillus subtilis DELTA
[2] = test system: Pseudomonas aeruginosa PAO1
[3] = test system: Escherichia coli DH5alpha
Candida krusei ATCC 6258 = test system: Candida krusei ATCC 6258
[4] = test system: Candida parapsilosis ATCC 90018
[5] = test system: Staphylococcus aureus ATCC 29213
[6] = test system: Candida albicans ATCC 10231
[7] = test system: Candida tropicalis ATCC 750
[8] = test system: Pseudomonas aeruginosa ATCC 27853
[9] = test system: Escherichia coli ATCC 25922
[10] = test system: Candida glabrata ATCC 2001
[11] = test system: Proteus mirabilis ATCC 25933
[12] = test system: Escherichia coli KCTC 2433
[13] = test system: Bacillus subtilis ATCC 6633
[14] = test system: Staphylococcus aureus ATCC 25923
[15] = test system: Staphylococcus epidermidis ATCC 12228
[16] = test system: Staphylococcus aureus KCTC 3881
[17] = test system: Micrococcus luteus ATCC 4698
[18] = test system: Klebsiella pneumoniae ATCC 10031
[19] = test system: Pseudomonas aeruginosa ATCC 9027
[20] = test system: Shigella dysenteriae ATCC 9752
[21] = test system: Candida albicans ATCC 36232
Candida albicans 820 = test system: Candida albicans 820
[22] = test system: Listeria monocytogenes EGD
Escherichia coli ML-35 = test system: Escherichia coli ML-35
Staphylococcus aureus = test system: Staphylococcus aureus
[23] = test system: Salmonella enterica subsp. arizonae
Pasteurella multocida = test system: Pasteurella multocida
[24] = test system: Corynebacterium pseudotuberculosis ATCC 19410
[25] = test system: Mannheimia haemolytica Serovar 1
[26] = test system: Mannheimia haemolytica Serovar 6
Klebsiella pneumoniae = test system: Klebsiella pneumoniae
[27] = test system: Mannheimia haemolytica Serovar 2
Aspergillus fumigatus = test system: Aspergillus fumigatus
Bibersteinia trehalosi = test system: Bibersteinia trehalosi
[28] = test system: Pseudomonas aeruginosa H103
Candida albicans = test system: Candida albicans
[29] = test system: Pseudomonas aeruginosa 910
[30] = test system: Staphylococcus epidermidis
[31] = test system: Enterococcus faecalis ATCC 29212
[32] = test system: Salmonella enterica serovar Typhimurium
Escherichia coli UB1005 = test system: Escherichia coli UB1005
[33] = test system: Pseudomonas aeruginosa 253
[34] = test system: Pseudomonas aeruginosa 919

MIC (Candida parapsilosis): 17.8 µM (≈ 30.7 µg/mL) | MIC [1]: 2.96 µM (≈ 5.12 µg/mL) | MIC (Bacillus subtilis DELTA): 11.8 µM (≈ 20.5 µg/mL) | MIC [2]: 1.78 µM (≈ 3.07 µg/mL) | MIC [3]: 29.6 µM (≈ 51.2 µg/mL)
Structure (SMILES): CC[C@H](C)[C@H](NC(=O)[C@H](CCCN=C(N)N)NC(=O)[C@H](CCCCN)NC(=O)[C@H](Cc1ccccc1)NC(C)=O)C(=O)N[C@H](C(=O)N[C@@H](CCC(N)=O)C(=O)N[C@H](C(=O)N[C@H](C(=O)N[C@@H](CCCCN)C(=O)N[C@@H](CCCCN)C(=O)N[C@@H](Cc1ccccc1)C(=O)N[C@@H](CC(C)C)C(=O)N[C@@H](CCCN=C(N)N)C(N)=O)[C@@H](C)CC)[C@@H](C)CC)C(C)C [FKRIVQIIKKFLR]

MIC (Candida krusei ATCC 6258): ≥ 62.5 µM | MIC [4]: ≥ 125 µM | MIC [5]: 8 µM (≈ 11.6 µg/mL) | MIC [6]: 31.2 µM (≈ 45.1 µg/mL) | MIC [7]: 31.2 µM (≈ 45.1 µg/mL) | MIC [8]: 31.2 µM (≈ 45.1 µg/mL) | MIC [9]: 62.5 µM (≈ 90.3 µg/mL) | MIC [10]: ≥ 125 µM
Structure (SMILES): CC[C@H](C)[C@H](NC(=O)CN)C(=O)N[C@@H](CC(C)C)C(=O)N[C@@H](CC(=O)O)C(=O)N[C@H](C(=O)N[C@@H](CC(C)C)C(=O)N[C@@H](CC(N)=O)C(=O)N[C@@H](CCCCN)C(=O)N[C@H](C(=O)N[C@@H](CO)C(=O)N[C@@H](CC(N)=O)C(=O)N[C@@H](CC(C)C)C(=O)N[C@@H](Cc1ccccc1)C(N)=O)C(C)C)[C@@H](C)CC [GILDILNKVSNLF]

MIC (Staphylococcus aureus): > 10.4 µM | MIC [23]: 10.4 µM (≈ 20 µg/mL) | MIC (Pasteurella multocida): 10.4 µM (≈ 20 µg/mL) | MIC [24]: 10.4 µM (≈ 20 µg/mL) | MIC [2]: 5.2 µM (≈ 10 µg/mL) | MIC (Klebsiella pneumoniae): > 10.4 µM | MIC (Aspergillus fumigatus): 20.8 µM (≈ 40 µg/mL) | MIC (Bibersteinia trehalosi): 10.4 µM (≈ 20 µg/mL)
Structure (SMILES): CC[C@H](C)[C@H](NC(=O)[C@H](CCCCN)NC(=O)[C@H](CCCN=C(N)N)NC(=O)CNC(=O)[C@H](CC(C)C)NC(=O)[C@H](C)NC(=O)[C@H](CCCN=C(N)N)NC(=O)[C@H](CC(C)C)NC(=O)CNC(=O)[C@@H](N)CCCN=C(N)N)C(=O)N[C@@H](C)C(=O)N[C@@H](Cc1cnc[nH]1)C(=O)NCC(=O)N[C@H](C(=O)N[C@@H](CCCCN)C(=O)N[C@@H](C)C(=O)N[C@@H](Cc1ccc(O)cc1)C(=O)NCC(=O)O)C(C)C [RGLRALGRKIAHGVKAYG]
MIC [25]: 5.2 µM (≈ 10 µg/mL) | MIC [26]: 10.4 µM (≈ 20 µg/mL) | MIC [27]: 4.32 µM (≈ 8.3 µg/mL)

Second part, the compound before the results:

Structure (SMILES): CC[C@H](C)[C@@H]1NC(=O)[C@H](CCCCN)NC(=O)[C@@H](NC(=O)[C@H](CCCCN)NC(=O)[C@H](CC(C)C)NC(=O)[C@H](CCC(N)=O)NC(=O)[C@H](CCC(=O)O)NC(=O)[C@H](CC(C)C)NC(=O)[C@H](CC(C)C)NC(=O)[C@H](CO)NC(=O)CNC(=O)CNC(=O)[C@@H](NC(=O)[C@H](CC(N)=O)NC(=O)[C@H](CCCCN)NC(=O)[C@H](C)NC(=O)[C@@H](NC(=O)[C@H](CC(N)=O)NC(=O)[C@H](CCCCN)NC(=O)CNC(=O)[C@@H](NC(=O)[C@H](C)NC(=O)[C@H](CCCCN)NC(=O)[C@H](CC(C)C)NC(=O)[C@@H](NC(=O)CNC(=O)[C@@H](NC(=O)[C@@H](NC(=O)[C@@H](NC(=O)[C@H](CO)NC(=O)[C@H](Cc2ccccc2)NC(=O)[C@H](CC(C)C)NC(=O)CN)C(C)C)C(C)C)[C@@H](C)O)C(C)C)C(C)C)C(C)C)C(C)C)CSSC[C@@H](C(=O)O)NC(=O)CNC(=O)CNC(=O)[C@H](CO)NC1=O [GLFSVVTGVLKAVGKNVAKNVGGSLLEQLKCKISGGC]
MIC [11]: 27.2 µM (≈ 99.9 µg/mL) | MIC [12]: 16.3 µM (≈ 60 µg/mL) | MIC [13]: 13.6 µM (≈ 50 µg/mL) | MIC [14]: 30 µM (≈ 110 µg/mL) | MIC [15]: 13.6 µM (≈ 50 µg/mL) | MIC [16]: 6.8 µM (≈ 25 µg/mL) | MIC [17]: 1.7 µM (≈ 6.25 µg/mL) | MIC [18]: 13.6 µM (≈ 50 µg/mL) | MIC [19]: > 27.2 µM | MIC [9]: 15 µM (≈ 55.1 µg/mL) | MIC [20]: 13.6 µM (≈ 50 µg/mL) | MIC [21]: 13.6 µM (≈ 50 µg/mL)

Structure (SMILES): CC[C@H](C)[C@@H]1NC(=O)[C@@H]2CSSC[C@H](NC(=O)[C@H](Cc3ccc(O)cc3)NC(=O)[C@@H](NC(=O)[C@H](CC(C)C)NC(=O)[C@H](CCCNC(=N)N)NC(=O)CNC(=O)CNC(=O)[C@@H](N)CCCNC(=N)N)CSSC[C@@H](C(=O)N[C@H](C(N)=O)C(C)C)NC1=O)C(=O)N[C@@H](CCCNC(=N)N)C(=O)N[C@@H](CCCNC(=N)N)C(=O)N[C@@H](CCCNC(=N)N)C(=O)N[C@@H](Cc1ccccc1)C(=O)N2 [RGGRLCYCRRRFCICV]
MIC (Candida albicans 820): 12.7 µM (≈ 24.9 µg/mL) | MIC [22]: 12.7 µM (≈ 24.9 µg/mL) | MIC (Escherichia coli ML-35): 12.7 µM (≈ 24.9 µg/mL)

Structure (SMILES): CC[C@H](C)[C@H](NC(=O)[C@H](CCCN=C(N)N)NC(=O)[C@H](C)NC(=O)[C@H](CC(C)C)NC(=O)[C@@H](N)CCCN=C(N)N)C(=O)N[C@H](C(=O)N[C@H](C(=O)N[C@H](C(=O)N[C@@H](CCCN=C(N)N)C(=O)N[C@H](C(=O)N[C@@H](CCCN=C(N)N)C(=O)N[C@@H](CCCN=C(N)N)C(N)=O)C(C)C)[C@@H](C)CC)C(C)C)C(C)C [RLARIVVIRVRR]
MIC [28]: 10.6 µM (≈ 16 µg/mL) | MIC [14]: 5.31 µM (≈ 8 µg/mL) | MIC (Candida albicans): 5.31 µM (≈ 8 µg/mL) | MIC [29]: ≥ 64 µM | MIC [30]: 1.33 µM (≈ 2 µg/mL) | MIC [31]: 5.31 µM (≈ 8 µg/mL) | MIC [2]: 16 µM (≈ 24.1 µg/mL) | MIC [32]: 5.31 µM (≈ 8 µg/mL) | MIC (Escherichia coli UB1005): 5.31 µM (≈ 8 µg/mL) | MIC [33]: ≥ 64 µM | MIC [34]: ≥ 32 µM

Reference: DBAASP
